In US10851367B2, “Tissue-specific genome engineering using CRISPR-Cas9” (Pfizer Inc., priority 2015, dated 2020):

Molecular target: T1, ASGPR (Homo sapiens, UniProt P07306)
T1 sequence (P07306 148-291 limits assumed): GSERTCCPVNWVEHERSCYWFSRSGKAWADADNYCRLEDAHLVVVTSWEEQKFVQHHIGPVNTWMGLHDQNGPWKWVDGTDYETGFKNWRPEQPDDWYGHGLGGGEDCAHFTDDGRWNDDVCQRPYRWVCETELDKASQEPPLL
Assay: SPR binding measurements for ASGPr ligands (Biacore 3000)
Conditions: biotinylated ASGPR immobilized, 25° C., each run separately reported or n and std dev noted
Method: SPR Binding Measurements for ASGPr Ligands:
All SPR measurements with compounds were performed using a Biacore 3000 (GE Healthcare) at 25° C. Biotinylated ASGPR was immobilized typically at 2000-3000 resonance units (Ru) using either SA sensor chips (GE Healthcare) or custom sensor chips with Neutravidin (Pierce Biochemical) immobilized by standard amine coupling to CM5 sensor chips (GE Healthcare). The running buffer was HBS (10 mM HEPES, 150 mM NaCl), 20 mM CaCl2, 0.01% p20, 3% DMSO or 50 mM tris, 150 mM NaCl, 50 mM CaCl2, 0.01% p20, 3% DMSO pH 7.5. Compounds were diluted into running buffer at a concentration of 900 uM and serially diluted 3 fold to 3.7 uM. Compound solutions were injected at 50 ul/min for 1 min followed by a 1 min dissociation in duplicate for each concentration. For the multimeric conjugates (dimers, trimers), the conjugates were diluted in running buffer to concentrations of 100 nM or 10 nM and serially diluted. Conjugates were injected for 2 min and off rates were detected for 300 or 600 sec. After completion of off phase data the compounds were displaced using an injection of 900 uM GalNAc returning the receptor surface to the free state. […] KDs were determined by fitting the steady state binding responses for the compounds and single conjugated molecules in Scrubber2. […]

SMILES: CN(C(=O)OC(C)(C)C)[C@H]1[C@H]2OC[C@](CO)(O2)[C@H](O)[C@@H]1O [Compound 31, tert-butyl [(1S,2R,3R,4R,5S)-2,3-dihydroxy-1-(hydroxymethyl)-6,8-dioxabicyclo[3.2.1]oct-4-yl]methylcarbamate]
- Kd: 12.3 µM
